Results as given in patent EP3724209B1, “ELASTOMERIC PEPTIDE” (Politecnico di Milano, priority 2017, dated 2019).
Where a SMILES comes first, the peptide text is derived from it. Where no end group is shown, it is not given here. [ ]: non-standard residue; d: D form. Tyr(3,5-Br2) = N[C@@H](Cc1cc(Br)c(O)c(Br)c1)C(=O)O

Assays:
solubility test = assay type: physicochemical; conditions: for aspect of solution after cooling: 100 mM solution; for aspect of solution after heating: 100 mM solutions (5 mg in 50 µl); for solubility: buffers at pH 3, 7, and 12 (10 mM) and pure water
Procedure: The isoelectric point (calculated on http://web.expasy.org/compute-pi/) of SDSYGAP (SEQ ID no. 6), comparative, and an oligopeptide according to the present invention, i.e., SDS-Y(3,5 Br)-GAP is 3.8. Three buffers at pH 3, 7, and 12 (10 mM concentration) and pure water were used as solvent for the two oligopeptides.

[1] = test system: Pseudokirchneriella sub capitata
Procedure: An ecotoxicity test on Pseudokirchneriella sub capitata was performed to evaluate I% (inhibition percentage effect) and IC50 (concentration which determines the 50% inhibition of growth on the population) of the halogenated peptide SDS-Y(3,5 Br)-GAP.
The halogenated peptide SDS-Y(3,5 Br)-GAP was dissolved in water at 100 mg/l and tested at the following concentrations: 50 mg/l, 25 mg/l, 12.5 mg/l and 6.25 mg/l. Each sample was tested in triplicate.
After 72 hours of incubation with the sample or controls, a spectrophotometric test was performed at 670nm as a measure of cell density.

[2] = test system: HeLa (Human cervical cancer cells); assay: CellTiter-Glo Luminescent Cell Viability Assay; assay type: cell-based; conditions: 24 hours incubation
Procedure: HeLa (Human cervical cancer cells) were grown in DMEM supplemented with 1 mM sodium pyruvate, 10 mM HEPES buffer, 100 U/mL penicillin, 0.1 mg/mL streptomycin, 2 mM glutamine and 10% FBS (hereafter referred to as complete medium), at 37°C in a 5% CO2 humidified atmosphere. Cells were splitted the day before seeding and used within eight passages. The cells were seeded at a density of 7000 cell/cm^2. For evaluating cell viability, the day after the seeding the cell medium was replaced with medium containing the wild type or the halogenated oligopeptides and cells were incubated for 24 hours.

[3] = Dynamic Light Scattering aging study (autocorrelation lag time); assay type: physicochemical; conditions: 10 mM in water
Procedure: Dynamic Light Scattering measurements were performed on an ALV/CGS-3 Platform-based Goniometer System equipped with an ALV-7004 correlator and an ALV/CGS-3 goniometer. The signal was detected by an ALV-Static and Dynamic Enhancer detection unit. The light source was the second harmonic of a diode-pumped Coherent Innova Nd:YAG laser (λ = 532 nm), linearly polarized in the vertical direction. Measurements were performed at 25°C. Approximately 1 ml of sample solution was transferred into the cylindrical Hellma scattering cell.
The dynamic information on structures present in the peptide solutions were derived from the normalized autocorrelation function g2 (q, τ) of the scattered intensity, which is measured according to g2 (q, τ) = (〈I(q, t)I(q,t+τ)〉)/((〈I(q, t)〉)^2) [formula] where q is the scattering vector, τ is the relaxation time and I is the scattered intensity. Higher relaxation times correspond to larger self-assembled structures. […] Results are reported in Figure 7, as graphs showing the autocorrelation functions of wild type (panel A) or halogenated (panel B) oligopeptide 10 mM in water at 90°C. The autocorrelation functions at 90°C show increasing Lag Time, i.e., increasing dimensions of the self-assembled structures, over time. Table 1 summarizes and compares the results, showing that halogenated oligopeptide form bigger structures compared to the wild type one. This is a further indication that bromine atoms play a role in the aggregation behavior of the peptide sequence. The same aging study was performed in buffer at pH 7, with similar results (data not shown).

| Lag time ([3]; aging time t=0) [ms] | Lag time ([3]; aging time t=1 week) [ms] | Lag time ([3]; aging time t=24 h) [ms] | Lag time ([3]; aging time t=48 h) [ms] | Compound | aspect of solution after cooling (solubility test) | aspect of solution after heating (solubility test) | solubility (solubility test) | ecotoxicity [1] | IC50 (concentration which determines the 50% inhibition of growth on the population) ([1]; 72 hours of incubation) [mg/L] | cell viability [2] |
| --- | --- | --- | --- | --- | --- | --- | --- | --- | --- | --- |
|  |  |  |  | C[C@H](NC(=O)CNC(=O)[C@H](Cc1cc(Br)c(O)c(Br)c1)NC(=O)[C@H](CO)NC(=O)[C@H](CC(=O)O)NC(=O)[C@@H](N)CO)C(=O)N1CCC[C@H]1C(=O)O [SDS-Y(3,5 Br)-GAP] (H-SDS[Tyr(3,5-Br2)]GAP-OH) | milky | completely clear | good solubility properties in all the tested conditions | not ecotoxic | 54 | not toxic even at high concentrations |
| 1.512 | 3.826 | 2.859 | 1.919 | SDSYGAP [SDSYGAP] | still clear | completely clear | good solubility properties in all the tested conditions |  |  | not toxic even at high concentrations |
